What was measured:
[1] = tested on: human mesenchymal stem cells (hMSC); experiment: DTT / digestion solution cytotoxicity to hMSC; format: cell-based; conditions: short exposure (<30 minutes), high concentration of DTT (50 mM)
Method: Also, the DTT cytotoxicity to human mesenchymal stem cells (hMSC) was studied, as depicted at FIG. 3C. […], hMSC presented low viability—80% to 85%—at the high concentration of DTT (50 mM).

3T3 fibroblasts = experiment: in vitro cytotoxicity by MTT assay; format: cell-based
hMSCs = experiment: cell viability after full digestion with digestion agents; conditions: 0.015 M sodium citrate solutions
Method: The cell viability was calculated after full digestion due to the concern of potential cytotoxicity from the digestion agents.

| SMILES | hMSC tolerance [1] | cytotoxicity (MTT) (3T3 fibroblasts; 50 mM DTT solution) | cytotoxicity (MTT) (3T3 fibroblasts; low concentration 1 mM, compared to DPBS) | cytotoxicity (MTT) (3T3 fibroblasts; working concentration 10 mM, compared to DPBS) | cytotoxicity to hMSCs (hMSCs) |
| --- | --- | --- | --- | --- | --- |
| O[C@H](CS)[C@H](O)CS (racemic) [DTT, dithiothreitol] | tolerant | significant cytotoxicity | no significant cytotoxicity | no significant cytotoxicity | – |
| O=C([O-])CC(O)(CC(=O)[O-])C(=O)[O-].[Na+].[Na+].[Na+] [sodium citrate] | – | – | – | – | certain level of cytotoxicity |
